Results: ChEMBL document CHEMBL4004838, “Design and synthesis of novel phenyl -1, 4-beta-carboline-hybrid molecules as potential anticancer agents” (Eur J Med Chem, 2017)

What was measured:
Format in all cases: functional
UACC-62 = assay: Growth inhibition of human UACC62 cells assessed as cell growth at 1 uM incubated for 48 hrs by sulforhodamine B assay relative to control; conditions: UACC-62, 48 h, read-out: Activity
SK-MEL-28 = assay: Growth inhibition of human SK-MEL-28 cells assessed as cell growth at 0.01 uM incubated for 48 hrs by sulforhodamine B assay relative to control; conditions: SK-MEL-28, 48 h, read-out: Activity
MDA-MB-435 = assay: Growth inhibition of human MDA-MB-435 cells assessed as cell growth at 100 uM incubated for 48 hrs by sulforhodamine B assay relative to control; conditions: MDA-MB-435, 48 h, read-out: Activity
MOLT-4 = assay: Growth inhibition of human MOLT4 cells incubated for 48 hrs by sulforhodamine B assay; conditions: MOLT-4, 48 h
U-251 = assay: Growth inhibition of human U251 cells assessed as cell growth at 0.01 uM incubated for 48 hrs by sulforhodamine B assay relative to control; conditions: U-251, 48 h, read-out: Activity
HT-29 [1] = assay: Growth inhibition of human HT-29 cells assessed as cell growth at 100 uM incubated for 48 hrs by sulforhodamine B assay relative to control; conditions: HT-29, 48 h, read-out: Activity
HCT-116 [2] = assay: Growth inhibition of human HCT116 cells incubated for 48 hrs by sulforhodamine B assay; conditions: HCT-116, 48 h
UO-31 = assay: Growth inhibition of human UO31 cells assessed as cell growth at 100 uM incubated for 48 hrs by sulforhodamine B assay relative to control; conditions: UO-31, 48 h, read-out: Activity
NCI-H522 [3] = assay: Growth inhibition of human NCI-H522 cells assessed as cell growth at 100 uM incubated for 48 hrs by sulforhodamine B assay relative to control; conditions: NCI-H522, 48 h, read-out: Activity
SNB-19 = assay: Growth inhibition of human SNB19 cells assessed as cell growth at 1 uM incubated for 48 hrs by sulforhodamine B assay relative to control; conditions: SNB-19, 48 h, read-out: Activity
SF-539 [4] = assay: Growth inhibition of human SF539 cells assessed as cell growth at 0.01 uM incubated for 48 hrs by sulforhodamine B assay relative to control; conditions: SF-539, 48 h, read-out: Activity
T47D = assay: Growth inhibition of human T47D cells assessed as cell growth at 1 uM incubated for 48 hrs by sulforhodamine B assay relative to control; conditions: read-out: Activity
MDA-MB-231 = assay: Growth inhibition of human MDA-MB-231 cells assessed as cell growth at 100 uM incubated for 48 hrs by sulforhodamine B assay relative to control; conditions: MDA-MB-231, 48 h, read-out: Activity
LOX IMVI [5] = assay: Growth inhibition of human LOXIMVI cells assessed as cell growth at 0.01 uM incubated for 48 hrs by sulforhodamine B assay relative to control; conditions: read-out: Activity
LOX IMVI [6] = assay: Growth inhibition of human LOXIMVI cells assessed as cell growth at 1 uM incubated for 48 hrs by sulforhodamine B assay relative to control; conditions: read-out: Activity
HT-29 [7] = assay: Growth inhibition of human HT-29 cells assessed as cell growth at 0.01 uM incubated for 48 hrs by sulforhodamine B assay relative to control; conditions: HT-29, 48 h, read-out: Activity
K562 = assay: Growth inhibition of human K562 cells assessed as cell growth at 1 uM incubated for 48 hrs by sulforhodamine B assay relative to control; conditions: K562, 48 h, read-out: Activity
OVCAR-5 = assay: Growth inhibition of human OVCAR5 cells assessed as cell growth at 100 uM incubated for 48 hrs by sulforhodamine B assay relative to control; conditions: OVCAR-5, 48 h, read-out: Activity
NCI-H522 [8] = assay: Growth inhibition of human NCI-H522 cells incubated for 48 hrs by sulforhodamine B assay; conditions: NCI-H522, 48 h
HOP-92 = assay: Growth inhibition of human HOP92 cells assessed as cell growth at 0.1 uM incubated for 48 hrs by sulforhodamine B assay relative to control; conditions: HOP-92, 48 h, read-out: Activity
HCT-116 [9] = assay: Growth inhibition of human HCT116 cells assessed as cell growth at 1 uM incubated for 48 hrs by sulforhodamine B assay relative to control; conditions: HCT-116, 48 h, read-out: Activity
CCRF-CEM = assay: Growth inhibition of human CCRF-CEM cells incubated for 48 hrs by sulforhodamine B assay
SF-539 [10] = assay: Growth inhibition of human SF539 cells incubated for 48 hrs by sulforhodamine B assay; conditions: SF-539, 48 h
PC-3 = assay: Growth inhibition of human PC3 cells assessed as cell growth at 100 uM incubated for 48 hrs by sulforhodamine B assay relative to control; conditions: PC-3, 48 h, read-out: Activity
RPMI-8226 = assay: Growth inhibition of human RPMI8226 cells assessed as cell growth at 0.1 uM incubated for 48 hrs by sulforhodamine B assay relative to control; conditions: RPMI-8226, 48 h, read-out: Activity
SK-MEL-2 = assay: Growth inhibition of human SK-MEL-2 cells incubated for 48 hrs by sulforhodamine B assay; conditions: SK-MEL-2, 48 h
NCI/ADR-RES = assay: Growth inhibition of human NCI-ADR-RES cells assessed as cell growth at 1 uM incubated for 48 hrs by sulforhodamine B assay relative to control; conditions: read-out: Activity
DU-145 = assay: Growth inhibition of human DU145 cells assessed as cell growth at 0.1 uM incubated for 48 hrs by sulforhodamine B assay relative to control; conditions: DU-145, 48 h, read-out: Activity
NCI-H23 = assay: Growth inhibition of human NCI-H23 cells assessed as cell growth at 1 uM incubated for 48 hrs by sulforhodamine B assay relative to control; conditions: NCI-H23, 48 h, read-out: Activity
MDA-MB-468 = assay: Growth inhibition of human MDA-MB-468 cells assessed as cell growth at 100 uM incubated for 48 hrs by sulforhodamine B assay relative to control; conditions: MDA-MB-468, 48 h, read-out: Activity
[11] = read-out: LC50 (the source's name)
[12] = read-out: pLC50 (the source's name) (converted)

c1ccc2c3c([nH]c2c1)C(c1ccc(C2NCCc4c2[nH]c2ccccc42)cc1)NCC3 (racemic)
growth at 1 µM (UACC-62): 43%
growth at 0.01 µM (SK-MEL-28): 95%
growth at 100 µM (MDA-MB-435): 97%
CC50 (MOLT-4; [11]): 8.03 µM
GI50 (MOLT-4; read-out: pGI50 (converted)): 0.38 µM
CC50 (MOLT-4; [12]): 7.94 µM
TGI (MOLT-4; read-out: pTGI (converted)): 1.55 µM
growth at 0.01 µM (U-251): 98%
growth at 100 µM (HT-29 [1]): 90%
GI50 (HCT-116 [2]; read-out: GI50): 1.7 µM
CC50 (HCT-116 [2]; [11]): 6.59 µM
TGI (HCT-116 [2]; read-out: TGI): 3.35 µM
GI50 (HCT-116 [2]; read-out: pGI50 (converted)): 0.17 µM
CC50 (HCT-116 [2]; [12]): 0.661 µM
growth at 100 µM (UO-31): -96%
growth at 100 µM (NCI-H522 [3]): 81%
growth at 1 µM (SNB-19): 88%
growth at 0.01 µM (SF-539 [4]): 93%
growth at 1 µM (T47D): 66%
growth at 100 µM (MDA-MB-231): -92%
growth at 0.01 µM (LOX IMVI [5]): 94%
growth at 1 µM (LOX IMVI [6]): 48%
growth at 0.01 µM (HT-29 [7]): 104%
growth at 1 µM (K562): 52%
growth at 100 µM (OVCAR-5): 90%
CC50 (NCI-H522 [8]; [11]): 5.21 µM
GI50 (NCI-H522 [8]; read-out: pGI50 (converted)): 0.417 µM
CC50 (NCI-H522 [8]; [12]): 5.25 µM
TGI (NCI-H522 [8]; read-out: pTGI (converted)): 1.48 µM
growth at 0.1 µM (HOP-92): 87%
growth at 1 µM (HCT-116 [9]): 81%
CC50 (CCRF-CEM; [11]): 1.22 µM
GI50 (CCRF-CEM; read-out: pGI50 (converted)): 0.457 µM
CC50 (CCRF-CEM; [12]): 12.3 µM
TGI (CCRF-CEM; read-out: pTGI (converted)): 2.04 µM
GI50 (SF-539 [10]; read-out: GI50): 1.62 µM
CC50 (SF-539 [10]; [11]): 5.71 µM
TGI (SF-539 [10]; read-out: TGI): 3.04 µM
GI50 (SF-539 [10]; read-out: pGI50 (converted)): 1.62 µM
CC50 (SF-539 [10]; [12]): 5.75 µM
TGI (SF-539 [10]; read-out: pTGI (converted)): 3.02 µM
growth at 100 µM (PC-3): -93%
growth at 0.1 µM (RPMI-8226): 105%
GI50 (SK-MEL-2; read-out: GI50): 1.7 µM
CC50 (SK-MEL-2; [11]): 7.47 µM
TGI (SK-MEL-2; read-out: TGI): 3.57 µM
GI50 (SK-MEL-2; read-out: pGI50 (converted)): 1.7 µM
CC50 (SK-MEL-2; [12]): 7.41 µM
TGI (SK-MEL-2; read-out: pTGI (converted)): 3.55 µM
growth at 1 µM (NCI/ADR-RES): 78%
growth at 0.1 µM (DU-145): 100%
growth at 1 µM (NCI-H23): 85%
growth at 100 µM (MDA-MB-468): -78%

c1ccc2[nH]c(-c3ccc(-c4nccc5c4[nH]c4ccccc45)cc3)nc2c1
growth at 1 µM (UACC-62): 80%
growth at 0.01 µM (SK-MEL-28): 96%
growth at 100 µM (MDA-MB-435): 67%
GI50 (MOLT-4; read-out: GI50): 2.32 µM
CC50 (MOLT-4; [11]): 7.51 µM
TGI (MOLT-4; read-out: TGI): 6.11 µM
GI50 (MOLT-4; read-out: pGI50 (converted)): 2.29 µM
CC50 (MOLT-4; [12]): 75.9 µM
TGI (MOLT-4; read-out: pTGI (converted)): 6.17 µM
growth at 0.01 µM (U-251): 101%
growth at 100 µM (HT-29 [1]): 64%
CC50 (HCT-116 [2]; [11]): 4.43 µM
GI50 (HCT-116 [2]; read-out: pGI50 (converted)): 2.82 µM
CC50 (HCT-116 [2]; [12]): 44.7 µM
TGI (HCT-116 [2]; read-out: pTGI (converted)): 10.5 µM
growth at 100 µM (UO-31): 82%
growth at 100 µM (NCI-H522 [3]): 46%
growth at 1 µM (SNB-19): 88%
growth at 0.01 µM (SF-539 [4]): 96%
growth at 1 µM (T47D): 82%
growth at 100 µM (MDA-MB-231): 54%
growth at 0.01 µM (LOX IMVI [5]): 93%
growth at 1 µM (LOX IMVI [6]): 81%
growth at 0.01 µM (HT-29 [7]): 100%
growth at 1 µM (K562): 100%
growth at 100 µM (OVCAR-5): 62%
GI50 (NCI-H522 [8]; read-out: GI50): 2.06 µM
CC50 (NCI-H522 [8]; [11]): > 1 µM
TGI (NCI-H522 [8]; read-out: TGI): 5.04 µM
GI50 (NCI-H522 [8]; read-out: pGI50 (converted)): 2.04 µM
CC50 (NCI-H522 [8]; [12]): > 100 µM
TGI (NCI-H522 [8]; read-out: pTGI (converted)): 5.01 µM
growth at 0.1 µM (HOP-92): 93%
growth at 1 µM (HCT-116 [9]): 90%
GI50 (CCRF-CEM; read-out: GI50): 3.12 µM
CC50 (CCRF-CEM; [11]): > 1 µM
TGI (CCRF-CEM; read-out: TGI): 9.12 µM
GI50 (CCRF-CEM; read-out: pGI50 (converted)): 3.09 µM
CC50 (CCRF-CEM; [12]): > 100 µM
TGI (CCRF-CEM; read-out: pTGI (converted)): 9.12 µM
GI50 (SF-539 [10]; read-out: GI50): 1.89 µM
CC50 (SF-539 [10]; [11]): 7.17 µM
TGI (SF-539 [10]; read-out: TGI): 3.68 µM
GI50 (SF-539 [10]; read-out: pGI50 (converted)): 1.91 µM
CC50 (SF-539 [10]; [12]): 7.24 µM
TGI (SF-539 [10]; read-out: pTGI (converted)): 3.72 µM
growth at 100 µM (PC-3): 71%
growth at 0.1 µM (RPMI-8226): 105%
GI50 (SK-MEL-2; read-out: GI50): 1.99 µM
CC50 (SK-MEL-2; [11]): 9.45 µM
TGI (SK-MEL-2; read-out: TGI): 4.34 µM
GI50 (SK-MEL-2; read-out: pGI50 (converted)): 2 µM
CC50 (SK-MEL-2; [12]): 9.55 µM
TGI (SK-MEL-2; read-out: pTGI (converted)): 4.37 µM
growth at 1 µM (NCI/ADR-RES): 98%
growth at 0.1 µM (DU-145): 96%
growth at 1 µM (NCI-H23): 88%
growth at 100 µM (MDA-MB-468): 63%
